In US20180057507A1, “INHIBITORS OF DUAL LEUCINE ZIPPER (DLK) KINASE FOR THE TREATMENT OF DISEASE” (Board of Regents, The University of Texas System, priority 2016, published 2018):

What follows are molecules tested against T1, human DLK (Homo sapiens, UniProt Q12852) (assay: DLK Kd Determinations (KINOMEscan KdELECT, DiscoveRx)). Settings: fusion protein of full length human DLK (amino acids 1-859) and NFkB DNA binding domain; qPCR readout; duplicate.
T1 sequence (Q12852 1-859): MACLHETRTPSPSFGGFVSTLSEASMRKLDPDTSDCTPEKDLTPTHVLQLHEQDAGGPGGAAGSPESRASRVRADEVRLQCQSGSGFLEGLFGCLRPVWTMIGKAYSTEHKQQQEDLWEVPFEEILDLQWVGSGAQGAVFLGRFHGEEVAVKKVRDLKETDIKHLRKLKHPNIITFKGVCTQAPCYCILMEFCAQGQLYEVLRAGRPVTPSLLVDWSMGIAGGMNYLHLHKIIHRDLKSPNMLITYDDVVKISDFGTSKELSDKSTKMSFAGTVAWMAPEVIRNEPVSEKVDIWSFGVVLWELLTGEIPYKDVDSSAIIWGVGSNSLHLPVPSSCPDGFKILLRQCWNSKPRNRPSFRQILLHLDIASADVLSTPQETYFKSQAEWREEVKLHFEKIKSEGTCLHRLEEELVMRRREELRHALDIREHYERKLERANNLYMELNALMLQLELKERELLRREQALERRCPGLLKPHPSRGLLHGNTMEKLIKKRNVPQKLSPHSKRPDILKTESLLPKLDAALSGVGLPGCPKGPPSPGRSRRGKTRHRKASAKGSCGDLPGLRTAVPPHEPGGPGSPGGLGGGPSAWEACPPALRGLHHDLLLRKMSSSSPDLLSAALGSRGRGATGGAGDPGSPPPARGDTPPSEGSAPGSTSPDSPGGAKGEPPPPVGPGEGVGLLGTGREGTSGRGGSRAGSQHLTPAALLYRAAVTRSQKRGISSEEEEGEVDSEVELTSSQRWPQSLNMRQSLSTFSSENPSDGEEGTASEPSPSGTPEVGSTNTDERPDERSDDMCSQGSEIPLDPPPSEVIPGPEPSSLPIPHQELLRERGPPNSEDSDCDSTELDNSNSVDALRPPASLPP
Design: full length of human DLK (amino acids 1-859); host or cells: transiently transfected HEK293 cells; unpurified extract
Procedure: The DLK dissociation constants (Kd) have been determined in the KINOMEscan KdELECT Service at DiscoveRx.
A fusion protein of full length of human DLK (amino acids 1-859) and the DNA binding domain of NFkB was expressed in transiently transfected HEK293 cells. From these HEK 293 cells, extracts were prepared in M-PER extraction buffer (Pierce) in the presence of Protease Inhibitor Cocktail Complete (Roche) and Phosphatase Inhibitor Cocktail Set II (Merck) per manufacturers' instructions. The DLK fusion protein was labeled with a chimeric double-stranded DNA tag containing the NFkB binding site (5′-GGGAATTCCC-3′) fused to an amplicon for qPCR readout, which was added directly to the expression extract (the final concentration of DNA-tag in the binding reaction is 0.1 nM).
Streptavidin-coated magnetic beads (Dynal M280) were treated with a biotinylated small molecule ligand for 30 minutes at room temperature to generate affinity resins the binding assays. The liganded beads were blocked with excess biotin and washed with blocking buffer (SeaBlock (Pierce), 1% BSA, 0.05% Tween 20, 1 mM DTT) to remove unbound ligand and to reduce nonspecific binding.
Extracts were used directly in binding assays without any enzyme purification steps at a ≧10,000-fold overall stock dilution (final DNA-tagged enzyme concentration <0.1 nM). Extracts were loaded with DNA-tag and diluted into the binding reaction in a two step process. First extracts were diluted 1:100 in 1× binding buffer (PBS/0.05% Tween 20/10 mM DTT/0.1% BSA/2 μg/ml sonicated salmon sperm DNA) containing 10 nM DNA-tag. This dilution was allowed to equilibrate at room temperature for 15 minutes and then subsequently diluted 1:100 in 1× binding buffer. Test compounds were prepared as 111× stocks in 100% DMSO. Kds were determined using an 11-point 3-fold compound dilution series with three DMSO control points. All compounds for Kd measurements are distributed by acoustic transfer (non-contact dispensing) in 100% DMSO. The compounds were then diluted directly into the assays such that the final concentration of DMSO was 0.9%. All reactions performed in polypropylene 384-well plates. Each was a final volume of 0.02 mL. Assays were incubated with shaking for 1 hour at room temperature. Then the beads were pelleted and washed with wash buffer (1×PBS, 0.05% Tween 20) to remove displaced kinase and test compound. The washed based were re-suspended in elution buffer (1×PBS, 0.05% Tween 20, 0.5 μM non-biotinylated affinity ligand) and incubated at room temperature with shaking for 30 minutes. The kinase concentration in the eluates was measured by qPCR. qPCR reactions were assembled by adding 2.5 μL of kinase eluate to 7.5 μL of qPCR master mix containing 0.15 μM amplicon primers and 0.15 μM amplicon probe. The qPCR protocol consisted of a 10 minute hot start at 95° C., followed by 35 cycles of 95° C. for 15 seconds, 60° C. for 1 minute.
Test compounds were prepared as 111× stocks in 100% DMSO. Kds were determined using an 11-point 3-fold compound dilution series with three DMSO control points. All compounds for Kd measurements are distributed by acoustic transfer (non-contact dispensing) in 100% DMSO. The compounds were then diluted directly into the assays such that the final concentration of DMSO was 0.9%. The Kds were determined using a compound top concentration of 30,000 nM. Kd measurements were performed in duplicate.
Binding constants (Kds) were calculated with a standard dose-response curve using the Hill equation: […]
The Hill Slope was set to −1. Curves were fitted using a non-linear least square fit with the Levenberg-Marquardt algorithm (Levenberg, K., A method for the solution of certain non-linear problems in least squares, Q. Appl. Math. 2, 164-168 (1944)). See also Fabian, M. A. et al. A small molecule-kinase interaction map for clinical kinase inhibitors. Nat. Biotechnol. […]

SMILES | Kd
Nc1ncc(-c2cn([C@H]3[C@@H]4CN(C5COC5)C[C@@H]43)c(C3CCCC3)n2)cc1C(F)(F)F [Example 62, 5-(2-cyclopentyl-1-((1R,5S,6s)-3-(oxetan-3-yl)-3-azabicyclo[3.1.0]hexan-6-yl)-1H-imidazol-4-yl)-3-(trifluoromethyl)pyridin-2-amine] | 0.085 µM
Nc1ncc(-c2cn([C@H]3[C@@H]4CN(C5COC5)C[C@@H]43)c(C3CCCC3)n2)cc1OC(F)(F)F [Example 63, 5-(2-cyclopentyl-1-((1R,5S,6s)-3-(oxetan-3-yl)-3-azabicyclo[3.1.0]hexan-6-yl)-1H-imidazol-4-yl)-3-(trifluoromethoxy)pyridin-2-amine] | 0.14 µM
Nc1ncc(-c2cn([C@H]3[C@@H]4CN(C5COC5)C[C@@H]43)c(C3CCCC3)n2)cc1OC(F)F [Example 64, 5-(2-cyclopentyl-1-((1R,5S,6s)-3-(oxetan-3-yl)-3-azabicyclo[3.1.0]hexan-6-yl)-1H-imidazol-4-yl)-3-(difluoromethoxy)pyridin-2-amine] | 0.12 µM
Nc1ncc(-c2cn([C@H]3[C@@H]4CNC[C@@H]43)c(C3CC3)n2)cc1C(F)(F)F [Example 71, 5-(1-((1R,5S,6s)-3-azabicyclo[3.1.0]hexan-6-yl)-2-cyclopropyl-1H-imidazol-4-yl)-3-(trifluoromethyl)pyridin-2-amine] | 0.087 µM
Nc1ncc(-c2cn([C@H]3[C@@H]4CN(CC(F)F)C[C@@H]43)c(C3CC3)n2)cc1C(F)(F)F [Example 75, 5-(2-cyclopropyl-1-((1R,5S,6s)-3-(2,2-difluoroethyl)-3-azabicyclo[3.1.0]hexan-6-yl)-1H-imidazol-4-yl)-3-(trifluoromethyl)pyridin-2-amine] | 0.056 µM
Nc1ncc(-c2cn([C@H]3[C@@H]4CN(CC(F)(F)F)C[C@@H]43)c(CC3CC3)n2)cc1C(F)(F)F [Example 79, 5-(2-(cyclopropylmethyl)-1-((1R,5S,6s)-3-(2,2,2-trifluoroethyl)-3-azabicyclo[3.1.0]hexan-6-yl)-1H-imidazol-4-yl)-3-(trifluoromethyl)pyridin-2-amine] | 0.18 µM
CC(=O)N1C[C@@H]2[C@H](C1)[C@H]2n1cc(-c2cnc(N)c(C(F)(F)F)c2)nc1CC(F)(F)F [Example 82, 1-((1R,5S,6s)-6-(4-(6-amino-5-(trifluoromethyl)pyridin-3-yl)-2-(2,2,2-trifluoroethyl)-1H-imidazol-1-yl)-3-azabicyclo[3.1.0]hexan-3-yl)ethan-1-one] | 0.097 µM
Nc1ncc(-c2cn([C@H]3[C@@H]4CN(C5COC5)C[C@@H]43)c(CC3CC3)n2)cc1OC(F)F [Example 87, 5-(2-(cyclopropylmethyl)-1-((1R,5S,6s)-3-(oxetan-3-yl)-3-azabicyclo[3.1.0]hexan-6-yl)-1H-imidazol-4-yl)-3-(difluoromethoxy)pyridin-2-amine] | 0.11 µM
Nc1ncc(-c2cn([C@H]3[C@@H]4CN(CC(F)(F)F)C[C@@H]43)c(C3CC3)n2)cc1C(F)(F)F [Example 93, 5-(2-cyclopropyl-1-((1R,5S,6s)-3-(2,2,2-trifluoroethyl)-3-azabicyclo[3.1.0]hexan-6-yl)-1H-imidazol-4-yl)-3-(trifluoromethyl)pyridin-2-amine] | 0.27 µM

Continued by falling Kd, values first:

Kd | SMILES
0.51 µM | Nc1ncc(-c2cn([C@H]3[C@@H]4CN(CC(F)(F)F)C[C@@H]43)c(C3CC3)n2)cc1OC(F)(F)F [Example 70, 5-(2-cyclopropyl-1-((1R,5S,6s)-3-(2,2,2-trifluoroethyl)-3-azabicyclo[3.1.0]hexan-6-yl)-1H-imidazol-4-yl)-3-(trifluoromethoxy)pyridin-2-amine]
0.29 µM | Nc1ncc(-c2cn([C@H]3[C@@H]4CN(CC(F)F)C[C@@H]43)c(CC3CC3)n2)cc1OC(F)F [Example 89, 5-(2-(cyclopropylmethyl)-1-((1R,5S,6s)-3-(2,2-difluoroethyl)-3-azabicyclo[3.1.0]hexan-6-yl)-1H-imidazol-4-yl)-3-(difluoromethoxy)pyridin-2-amine]
0.14 µM | Nc1ncc(-c2cn([C@H]3[C@@H]4CN(CC(F)F)C[C@@H]43)c(CC3CC3)n2)cc1C(F)(F)F [Example 61, 5-(2-(cyclopropylmethyl)-1-((1R,5S,6s)-3-(2,2-difluoroethyl)-3-azabicyclo[3.1.0]hexan-6-yl)-1H-imidazol-4-yl)-3-(trifluoromethyl)pyridin-2-amine]
0.13 µM | Nc1ncc(-c2cn([C@H]3[C@@H]4CN(CC(F)F)C[C@@H]43)c(C3CC3)n2)cc1OC(F)(F)F [Example 67, 5-(2-cyclopropyl-1-((1R,5S,6s)-3-(2,2-difluoroethyl)-3-azabicyclo[3.1.0]hexan-6-yl)-1H-imidazol-4-yl)-3-(trifluoromethoxy)pyridin-2-amine]
0.11 µM | Nc1ncc(-c2cn([C@H]3[C@@H]4CNC[C@@H]43)c(CC3CC3)n2)cc1OC(F)F [Example 86, 5-(1-((1R,5S,6s)-3-azabicyclo[3.1.0]hexan-6-yl)-2-(cyclopropylmethyl)-1H-imidazol-4-yl)-3-(difluoromethoxy)pyridin-2-amine]
0.093 µM | Nc1ncc(-c2cn([C@H]3[C@@H]4CN(CC(F)F)C[C@@H]43)c(CC3CC3)n2)cc1OC(F)(F)F [Example 98, 5-(2-(cyclopropylmethyl)-1-((1R,5S,6s)-3-(2,2-difluoroethyl)-3-azabicyclo[3.1.0]hexan-6-yl)-1H-imidazol-4-yl)-3-(trifluoromethoxy)pyridin-2-amine]
0.077 µM | CC(=O)N1C[C@@H]2[C@H](C1)[C@H]2n1cc(-c2cnc(N)c(OC(F)(F)F)c2)nc1CC1CC1 [Example 91, 1-((1R,5S,6s)-6-(4-(6-amino-5-(trifluoromethoxy)pyridin-3-yl)-2-(cyclopropylmethyl)-1H-imidazol-1-yl)-3-azabicyclo[3.1.0]hexan-3-yl)ethan-1-one]
0.053 µM | Nc1ncc(-c2cn([C@H]3[C@@H]4CNC[C@@H]43)c(C3CC3)n2)cc1OC(F)F [Example 96, 5-(1-((1R,5S,6s)-3-azabicyclo[3.1.0]hexan-6-yl)-2-cyclopropyl-1H-imidazol-4-yl)-3-(difluoromethoxy)pyridin-2-amine]
